Reference: the supplement of paper PMC10307832

What was measured:
Assay in all cases: relative viability (nuclei count vs DMSO), 5 days (fraction); higher = more cells survive
KN-93 + Bortezomib = compound: CN(C/C=C/C1=CC=C(C=C1)Cl)CC2=CC=CC=C2N(CCO)S(=O)(=O)C3=CC=C(C=C3)OC [KN-93] + CC(C)C[C@H](NC(=O)[C@H](Cc1ccccc1)NC(=O)c1cnccn1)B(O)O [Bortezomib] (partner 0.002 µM)
Procedure, shortened: (§1)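 After 5 days of treatment, lung cancer cells in 1536-well plates were fixed and stained in a single step (final 0.05% Triton X-100, 1% formaldehyde, 1 ug/ml Hoechst) and their nuclei counted on 4× images. Treatment had been applied by pin tool the day after seeding as one drug alone or as a fixed anchor-drug dose with five library-drug doses (not always all listed) in √10 steps. Relative viability is the nuclei count of treated wells divided by that of vehicle wells, and values are medians of duplicate plates.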

KN-93 + Phenformin = compound: CN(C/C=C/C1=CC=C(C=C1)Cl)CC2=CC=CC=C2N(CCO)S(=O)(=O)C3=CC=C(C=C3)OC [KN-93] + N=C(N)NC(=N)NCCc1ccccc1 [Phenformin] (partner 250 µM)
Procedure, shortened: as §1

KN-93 + Pemetrexed = compound: CN(C/C=C/C1=CC=C(C=C1)Cl)CC2=CC=CC=C2N(CCO)S(=O)(=O)C3=CC=C(C=C3)OC [KN-93] + Nc1nc2[nH]cc(CCc3ccc(C(=O)N[C@@H](CCC(=O)O)C(=O)O)cc3)c2c(=O)[nH]1 [Pemetrexed] (partner 0.2 µM)
Procedure, shortened: as §1

KN-93 + Linsitinib = compound: CN(C/C=C/C1=CC=C(C=C1)Cl)CC2=CC=CC=C2N(CCO)S(=O)(=O)C3=CC=C(C=C3)OC [KN-93] + C[C@]1(O)C[C@@H](c2nc(-c3ccc4ccc(-c5ccccc5)nc4c3)c3c(N)nccn32)C1 [Linsitinib] (partner 1 µM)
Procedure, shortened: as §1

KN-93 + Tozasertib = compound: CN(C/C=C/C1=CC=C(C=C1)Cl)CC2=CC=CC=C2N(CCO)S(=O)(=O)C3=CC=C(C=C3)OC [KN-93] + Cc1cc(Nc2cc(N3CCN(C)CC3)nc(Sc3ccc(NC(=O)C4CC4)cc3)n2)n[nH]1 [Tozasertib] (partner 0.1 µM)
Procedure, shortened: as §1

Cell Line	relative viability (KN-93 + Bortezomib; first compound 0.08 µM)	relative viability (KN-93 + Bortezomib; first compound 0.253 µM)	relative viability (KN-93 + Bortezomib; first compound 2.53 µM)	relative viability (KN-93 + Bortezomib; first compound 8 µM)	relative viability (KN-93 + Phenformin; first compound 0.08 µM)	relative viability (KN-93 + Phenformin; first compound 0.253 µM)	relative viability (KN-93 + Phenformin; first compound 2.53 µM)	relative viability (KN-93 + Phenformin; first compound 8 µM)	relative viability (KN-93 + Pemetrexed; first compound 0.08 µM)	relative viability (KN-93 + Pemetrexed; first compound 0.253 µM)	relative viability (KN-93 + Pemetrexed; first compound 2.53 µM)	relative viability (KN-93 + Pemetrexed; first compound 8 µM)	relative viability (KN-93 + Linsitinib; first compound 0.08 µM)	relative viability (KN-93 + Linsitinib; first compound 0.253 µM)	relative viability (KN-93 + Linsitinib; first compound 2.53 µM)	relative viability (KN-93 + Linsitinib; first compound 8 µM)	relative viability (KN-93 + Tozasertib; first compound 0.08 µM)	relative viability (KN-93 + Tozasertib; first compound 0.253 µM)	relative viability (KN-93 + Tozasertib; first compound 2.53 µM)	relative viability (KN-93 + Tozasertib; first compound 8 µM)
LCLC-103H	0.968	1.07	1.16	0.949	0.319	0.341	0.359	0.31	0.455	0.443	0.515	0.475	1.17	1.05	0.963	0.877	0.427	0.501	0.434	0.376
NCI-H2342	–	–	–	–	0.536	0.62	0.671	0.487	0.735	0.679	0.859	0.717	–	–	–	–	0.471	0.492	0.556	0.421
NCI-H1793	–	–	–	–	0.372	0.36	0.367	0.2	0.97	0.899	1.1	0.528	–	1.18	0.925	0.673	0.305	0.23	0.315	0.258
LU99A	1.08	1.28	1.33	0.93	0.91	0.88	0.774	0.676	0.183	0.183	0.189	0.222	0.535	0.541	0.497	0.461	0.239	0.287	0.246	0.212
